Data as given in US8816076B2, “Aryl urea derivatives as N-formyl peptide receptor like-1 (FPRL-1) receptor modulators” (Allergan, Inc., priority 2011, dated 2014).
pEC50: −log10 of the molar value. Where “and” joins values, the source holds several entries; their conditions need not be identical. Identical values can stand only once.

Biological target: T1, FPRL-1 (Homo sapiens, UniProt P25090)
T1 construct: expressed in transfected cells
T1 sequence (P25090 1-351): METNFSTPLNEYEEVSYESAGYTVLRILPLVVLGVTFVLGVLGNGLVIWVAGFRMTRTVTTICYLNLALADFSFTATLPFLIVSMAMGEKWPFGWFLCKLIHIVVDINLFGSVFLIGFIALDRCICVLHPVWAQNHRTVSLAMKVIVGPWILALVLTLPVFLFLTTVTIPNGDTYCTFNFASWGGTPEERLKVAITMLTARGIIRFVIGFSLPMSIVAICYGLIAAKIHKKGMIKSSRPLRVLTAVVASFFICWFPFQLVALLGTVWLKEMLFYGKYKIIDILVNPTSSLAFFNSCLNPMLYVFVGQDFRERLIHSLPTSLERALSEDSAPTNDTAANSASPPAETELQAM
Experiment: Compound-induced calcium activity on FLIPR Tetra in CHO-Ga16 cells stably expressing FPRL1
Assay type: cell-based
Settings: for pEC50: compounds tested at 0.61 to 10,000 nM; for FPRL-1 Ga16-CHO (Rel. eff.): relative efficacy
Method: CHO-Ga16 cells stably expressing FPRL1 were cultured in (F12, 10% FBS, 1% PSA, 400 μg/ml geneticin and 50 μg/ml hygromycin) and HEK-Gqi5 cells stable expressing FPR1 were cultured in (DMEM high glucose, 10% FBS, 1% PSA, 400 μg/ml geneticin and 50 μg/ml hygromycin). In general, the day before the experiment, 18,000 cells/well were placed in a 384-well clear bottom poly-d-lysine coated plate. The following day the screening compound-induced calcium activity was assayed on the FLIPR^Tetra. The drug plates were prepared in 384-well microplates using the EP3 and the MultiPROBE robotic liquid handling systems. Compounds were tested at concentrations ranging from 0.61 to 10,000 nM. Results are expressed as EC50 (nM) and efficacy values.

SMILES	pEC50	FPRL-1 Ga16-CHO (Rel. eff.)
O=C(Nc1ccc(Br)cc1F)N[C@@H](Cc1ccccc1)C(=O)O [Compound 1, (2S)-2-({[(4-Bromo-2-fluorophenyl)amino]carbonyl}amino)-3-phenylpropanoic acid]	7.29	(0.88)
Cc1cc(Br)ccc1NC(=O)N[C@@H](Cc1ccccc1)C(=O)O [Compound 2, (2S)-2-({[(4-Bromo-2-methylphenyl)amino]carbonyl}amino)-3-phenylpropanoic acid]	5.81	(1.0)
O=C(Nc1c(F)cc(Br)cc1F)N[C@@H](Cc1ccccc1)C(=O)O [Compound 3, (2S)-2-({[(4-Bromo-2,6-difluorophenyl)amino]carbonyl}amino)-3-phenylpropanoic acid]	6.25	(1.0)
Cc1cc(Br)cc(C)c1NC(=O)N[C@@H](Cc1ccccc1)C(=O)O [Compound 4, (2S)-2-({[(4-Bromo-2,6-dimethylphenyl)amino]carbonyl}amino)-3-phenylpropanoic acid]	5.62	(0.82)
O=C(Nc1ccc(Cl)cc1Cl)N[C@@H](Cc1ccccc1)C(=O)O [Compound 5, (2S)-2-({[(2,4-Dichlorophenyl)amino]carbonyl}amino)-3-phenylpropanoic acid]	5.94	(1.0)
CC[C@H](C)[C@H](NC(=O)Nc1ccc(Br)cc1F)C(=O)O [Compound 7, (2S,3S)-2-({[(4-Bromo-2-fluorophenyl)amino]carbonyl}amino)-3-methylpentanoic acid]	8.10	(0.89)
O=C(Nc1ccc(Br)cc1F)N[C@H](C(=O)O)c1ccccc1 [Compound 8, (2S)-({[(4-Bromo-2-fluorophenyl)amino]carbonyl}amino)(phenyl)acetic acid]	7.06	(1.02)
O=C(Nc1ccc(Br)c2ccccc12)N[C@@H](Cc1ccccc1)C(=O)O [Compound 10, (2S)-2-({[(4-Bromo-1-naphthyl)amino]carbonyl}amino)-3-phenylpropanoic acid]	5.29	(0.53)
CC(C)C[C@H](NC(=O)Nc1ccc(SC(F)(F)F)cc1)C(=O)O [Compound 11, (2S)-4-Methyl-2-{[({4-[(trifluoromethyl)thio]phenyl}amino)carbonyl]amino}pentanoic acid]	5.62	(0.64)
CC(C)C[C@H](NC(=O)Nc1ccc(C(F)(F)F)cc1)C(=O)O [Compound 12, (2S)-4-Methyl-2-[({[4-(trifluoromethyl)phenyl]amino}carbonyl)amino]pentanoic acid]	7.54	(0.94)
CSCC[C@H](NC(=O)Nc1ccc(Br)cc1)C(=O)O [Compound 14, (2S)-2-({[(4-Bromophenyl)amino]carbonyl}amino)-4-(methylthio)butanoic acid]	7.12	(1.00)
CSc1ccc(NC(=O)N[C@@H](Cc2ccccc2)C(=O)O)cc1 [Compound 15, (2S)-2-[({[4-(Methylthio)phenyl]amino}carbonyl)amino]-3-phenylpropanoic acid]	7.11	(0.87)
O=C(Nc1ccc(Br)cc1)NC(Cc1ccccn1)C(=O)O (stereo not shown) [Compound 16, 2-({[(4-Bromophenyl)amino]carbonyl}amino)-3-pyridin-2-ylpropanoic acid]	6.31	(1.0)
O=C(Nc1ccc(Br)cc1F)NC(Cc1ccccn1)C(=O)O (stereo not shown) [Compound 17, 2-({[(4-Bromo-2-fluorophenyl)amino]carbonyl}amino)-3-pyridin-2-ylpropanoic acid]	6.15	(1.0)
O=C(Nc1ccc(Br)cc1F)NC(Cc1c[nH]c2ccccc12)C(=O)O (stereo not shown) [Compound 19, 2-({[(4-Bromo-2-fluorophenyl)amino]carbonyl}amino)-3-(1H-indol-3-yl)propanoic acid]	6.92	(1.04)
O=C(Nc1ncc2cc(Br)ccc2n1)NC(Cc1ccccc1)C(=O)O (stereo not shown) [Compound 20, 2-({[(6-Bromoquinazolin-2-yl)amino]carbonyl}amino)-3-phenylpropanoic acid]		(0.25)
CSCCC(NC(=O)Nc1ccc(Br)cc1)C(=O)O (stereo not shown) [Compound 21, 2-({[(4-Bromophenyl)amino]carbonyl}amino)-4-(methylthio)butanoic acid]	7.03	(0.94)
O=C(Nc1ccc(C(F)(F)F)cc1)NC(Cc1ccccc1)C(=O)O (stereo not shown) [Compound 22, 3-Phenyl-2-({[4-(trifluoromethyl)phenyl]carbamoyl}amino)propanoic acid]	7.04	(1.05)
CSc1ccc(NC(=O)NC(Cc2ccccc2)C(=O)O)cc1 (stereo not shown) [Compound 23, 2-[({[4-(Methylthio)phenyl]amino}carbonyl)amino]-3-phenylpropanoic acid]	6.77	(0.76)
CC(C)CC(C)(NC(=O)Nc1ccc(Br)cc1)C(=O)O (stereo not shown) [Compound 24, 2-({[(4-Bromophenyl)amino]carbonyl}amino)-2,4-dimethylpentanoic acid]	7.80	(0.95)
CCC(CC)(NC(=O)Nc1ccc(Br)cc1)C(=O)O [Compound 25, 2-({[(4-Bromophenyl)amino]carbonyl}amino)-2-ethylbutanoic acid]	7.62	(1.03)
NC(=O)[C@H](Cc1ccccc1)NC(=O)Nc1ccc(Br)cc1 [Compound 26, (2S)-2-({[(4-Bromophenyl)amino]carbonyl}amino)-3-phenylpropanamide]	7.33 and 7.54	
CC(C)C[C@H](NC(=O)Nc1ccc(Br)cc1F)C(N)=O [Compound 27, (2S)-2-({[(4-Bromo-2-fluorophenyl)amino]carbonyl}amino)-4-methylpentanamide]	6.92	(1.13)
CC(C)C[C@H](NC(=O)Nc1ccc(Br)cc1)C(N)=O [Compound 28, (2S)-2-({[(4-Bromophenyl)amino]carbonyl}amino)-4-methylpentanamide]	7.32	(0.91)
CC[C@H](C)[C@H](NC(=O)Nc1ccc(Br)cc1F)C(N)=O [Compound 29, (2S,3S)-2-({[(4-Bromo-2-fluorophenyl)amino]carbonyl}amino)-3-methylpentanamide]	6.62	(0.78)
CCC[C@H](NC(=O)Nc1ccc(Br)cc1F)C(N)=O [Compound 30, (2S)-2-({[(4-Bromo-2-fluorophenyl)amino]carbonyl}amino)pentanamide]	7.25	(1.07)
CCC[C@H](NC(=O)Nc1ccc(Br)cc1)C(N)=O [Compound 31, (2S)-2-{[(4-Bromophenyl)carbamoyl]amino} pentanamide]	6.96	(0.97)
